As usually defined, the Ki is the dissociation constant of the complex between target and ligand, obtained from inhibition or displacement.

We go through one compound from patent publication US10501451B2, “Selective NR2B antagonists” (BRISTOL-MYERS SQUIBB COMPANY, priority 2015, dated 2019).

Experiment [1] concerns the target NR2B-subtype NMDA receptors (Rattus norvegicus (Rat), UniProt P35439+Q00960). Put plainly: Radioligand binding assay (3H Ro 25-6981 competition, rat forebrain membranes). The note with it: 3H Ro 25-6981 (4 nM), P-2, read-out: NR2B Binding Ki. On the procedure: Radioligand Binding Assay. Binding experiments to determine binding to NR2B-subtype NMDA receptors were performed on forebrains of 8-10 weeks old male Sprague Dawley rats (Harlan, Netherlands) using ^3H Ro 25-6981 (Mutel V; Buchy D; Klingelschmidt A; Messer J; Bleuel Z; Kemp J A; Richards J G. Journal of Neurochemistry, 1998, 70(5):2147-2155. Rats were decapitated without anesthesia using a Guillotine (approved by animal ethics committee) and the harvested brains were snap-frozen and stored at −80° C. for 3-6 months for membrane preparation.
For membrane preparation, rat forebrains were thawed on ice for 20 minutes in homogenization buffer composed of 50 mM KH2PO4 (pH adjusted to 7.4 with KOH), 1 mM EDTA, 0.005% Triton X 100 and protease inhibitor cocktail (Sigma Aldrich). Thawed brains were homogenized using a Dounce homogenizer and centrifuged at 48000×g for 20 min. The pellet was resuspended in cold buffer and homogenized again using a Dounce homogenizer. Subsequently, the homogenate was aliquoted, snap-frozen and stored at −80° C. for not more than 3-4 months.
To perform the competition binding assay, thawed membrane homogenate was added to each well of a 96-well plate (20 μg/well). The experimental compounds were serially diluted in 100% DMSO and added to each row of the assay plate to achieve desired compound concentrations, keeping the DMSO concentration in the assay plate at 1.33% of the final reaction volume. Next, ^3H Ro 25-6981 (4 nM) was added to the assay plate. After incubation for 1 hr at room temperature, the membrane bound radioligand was harvested on to GF/B filter plates (treated with 0.5% PEI for 1 hr at room temperature). The filter plates were dried at 50° C. for 20 mins, incubated with microscint 20 for 10 minutes and finally, the counts were read on TopCount (Perkin Elmer).

Experiment [2] has as its target brain-resident NR2B-subtype receptors (Mus musculus (Mouse), UniProt P35438+Q01097). Put plainly: Ex vivo occupancy assay. To be noted: animals after dosing. In kind it is in vivo. On the procedure:
Ex Vivo Occupancy Assay. […] 7-9 weeks old male CD-1 mice were dosed intravenously in a vehicle consisting of 10% dimethylacetamide, 40% PEG-400, 30% hydroxypropyl betacyclodextrin, and 30% water with experimental compounds and the forebrains were harvested 15 minutes post-dosing by decapitation. The brain samples were immediately snap-frozen and stored at −80° C. On the following day, the dosed brain samples were thawed on ice for 15-20 minutes followed by homogenization using Polytron for 10 seconds in cold homogenization buffer composed of 50 mM KH2PO4 (pH adjusted to 7.4 with KOH), 1 mM EDTA, 0.005% Triton X 100 and protease inhibitor cocktail (Sigma Aldrich). The crude homogenates were further homogenized using a Dounce homogenizer and the homogenized membrane aliquots from all animals were flash-frozen and stored at −80° C. until further use. The whole homogenization process was performed on ice. For determining occupancy, the membrane homogenates were first thawed on ice and then needle-homogenized using a 25 gauge needle. The homogenized membrane (6.4 mg/ml) was added to a 96-well plate followed by addition of ^3H Ro 25-6981 (6 nM). The reaction mixture was incubated for 5 minutes on a shaker at 4° C. and then harvested onto GF/B filter plates (treated with 0.5% PEI for 1 hr at room temperature). The filter plates were dried at 50° C. for 20 mins, incubated with microscint 20 for 10 minutes and read on TopCount (Perkin Elmer). Each dose or compound group consisted of 4-5 animals. The control group of animals was dosed with vehicle alone. Membrane from each animal was added in triplicates to the assay plate. Non-specific binding was determined using 10 μM Ro 25-6981 added to the wells containing membrane homogenates from vehicle-dosed animals. Specific counts/minute was converted to % occupancy at each dose of a compound for each animal using the following equation: […]
Drug levels were determined by mass spectroscopy in the usual manner. Drug levels in the blood plasma were 572 nM in at this dose, and drug levels in the homogenized brain tissue were 863 nM.

Sequence of NR2B-subtype NMDA receptors (Q00960 27-1482, other chains not shown): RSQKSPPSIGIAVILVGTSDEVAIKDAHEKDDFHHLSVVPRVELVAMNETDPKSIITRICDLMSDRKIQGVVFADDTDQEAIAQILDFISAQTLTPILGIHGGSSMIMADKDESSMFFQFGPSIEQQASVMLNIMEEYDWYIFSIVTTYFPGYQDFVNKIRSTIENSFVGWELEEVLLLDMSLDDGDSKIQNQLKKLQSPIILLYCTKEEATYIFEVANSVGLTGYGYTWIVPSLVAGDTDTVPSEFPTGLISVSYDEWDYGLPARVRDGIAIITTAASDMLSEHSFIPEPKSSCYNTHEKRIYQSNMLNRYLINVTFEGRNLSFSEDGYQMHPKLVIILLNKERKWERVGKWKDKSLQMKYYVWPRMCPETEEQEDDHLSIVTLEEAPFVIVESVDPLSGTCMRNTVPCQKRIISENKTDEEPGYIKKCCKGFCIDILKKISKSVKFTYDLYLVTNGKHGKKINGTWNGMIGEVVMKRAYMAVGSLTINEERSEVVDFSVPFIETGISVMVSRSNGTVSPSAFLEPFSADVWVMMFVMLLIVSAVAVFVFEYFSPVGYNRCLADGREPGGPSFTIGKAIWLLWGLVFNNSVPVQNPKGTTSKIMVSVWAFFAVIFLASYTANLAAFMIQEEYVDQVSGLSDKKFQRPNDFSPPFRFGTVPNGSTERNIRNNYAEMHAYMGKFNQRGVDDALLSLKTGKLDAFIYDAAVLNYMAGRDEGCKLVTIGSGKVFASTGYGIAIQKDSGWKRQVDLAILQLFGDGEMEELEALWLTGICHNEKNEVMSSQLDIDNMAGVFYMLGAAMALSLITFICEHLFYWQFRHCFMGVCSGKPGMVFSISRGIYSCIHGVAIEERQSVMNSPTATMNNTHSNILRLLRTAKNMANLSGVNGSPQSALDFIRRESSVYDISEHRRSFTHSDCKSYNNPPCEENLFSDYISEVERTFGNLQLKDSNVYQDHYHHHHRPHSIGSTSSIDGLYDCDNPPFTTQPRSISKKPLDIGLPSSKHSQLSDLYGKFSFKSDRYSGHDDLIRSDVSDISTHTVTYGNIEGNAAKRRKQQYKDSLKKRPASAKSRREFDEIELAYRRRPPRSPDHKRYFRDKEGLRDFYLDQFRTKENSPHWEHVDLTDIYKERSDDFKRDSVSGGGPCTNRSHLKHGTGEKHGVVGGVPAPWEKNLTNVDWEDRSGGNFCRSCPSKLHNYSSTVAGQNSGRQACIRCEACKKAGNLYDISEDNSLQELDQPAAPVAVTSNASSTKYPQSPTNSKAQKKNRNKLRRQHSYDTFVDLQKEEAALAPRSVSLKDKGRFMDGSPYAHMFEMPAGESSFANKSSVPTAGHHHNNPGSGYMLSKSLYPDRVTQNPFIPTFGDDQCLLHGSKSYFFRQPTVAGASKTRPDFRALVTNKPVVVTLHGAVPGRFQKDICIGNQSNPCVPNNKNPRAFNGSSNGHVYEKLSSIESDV
Sequence of brain-resident NR2B-subtype receptors (Q01097 27-1482, other chains not shown): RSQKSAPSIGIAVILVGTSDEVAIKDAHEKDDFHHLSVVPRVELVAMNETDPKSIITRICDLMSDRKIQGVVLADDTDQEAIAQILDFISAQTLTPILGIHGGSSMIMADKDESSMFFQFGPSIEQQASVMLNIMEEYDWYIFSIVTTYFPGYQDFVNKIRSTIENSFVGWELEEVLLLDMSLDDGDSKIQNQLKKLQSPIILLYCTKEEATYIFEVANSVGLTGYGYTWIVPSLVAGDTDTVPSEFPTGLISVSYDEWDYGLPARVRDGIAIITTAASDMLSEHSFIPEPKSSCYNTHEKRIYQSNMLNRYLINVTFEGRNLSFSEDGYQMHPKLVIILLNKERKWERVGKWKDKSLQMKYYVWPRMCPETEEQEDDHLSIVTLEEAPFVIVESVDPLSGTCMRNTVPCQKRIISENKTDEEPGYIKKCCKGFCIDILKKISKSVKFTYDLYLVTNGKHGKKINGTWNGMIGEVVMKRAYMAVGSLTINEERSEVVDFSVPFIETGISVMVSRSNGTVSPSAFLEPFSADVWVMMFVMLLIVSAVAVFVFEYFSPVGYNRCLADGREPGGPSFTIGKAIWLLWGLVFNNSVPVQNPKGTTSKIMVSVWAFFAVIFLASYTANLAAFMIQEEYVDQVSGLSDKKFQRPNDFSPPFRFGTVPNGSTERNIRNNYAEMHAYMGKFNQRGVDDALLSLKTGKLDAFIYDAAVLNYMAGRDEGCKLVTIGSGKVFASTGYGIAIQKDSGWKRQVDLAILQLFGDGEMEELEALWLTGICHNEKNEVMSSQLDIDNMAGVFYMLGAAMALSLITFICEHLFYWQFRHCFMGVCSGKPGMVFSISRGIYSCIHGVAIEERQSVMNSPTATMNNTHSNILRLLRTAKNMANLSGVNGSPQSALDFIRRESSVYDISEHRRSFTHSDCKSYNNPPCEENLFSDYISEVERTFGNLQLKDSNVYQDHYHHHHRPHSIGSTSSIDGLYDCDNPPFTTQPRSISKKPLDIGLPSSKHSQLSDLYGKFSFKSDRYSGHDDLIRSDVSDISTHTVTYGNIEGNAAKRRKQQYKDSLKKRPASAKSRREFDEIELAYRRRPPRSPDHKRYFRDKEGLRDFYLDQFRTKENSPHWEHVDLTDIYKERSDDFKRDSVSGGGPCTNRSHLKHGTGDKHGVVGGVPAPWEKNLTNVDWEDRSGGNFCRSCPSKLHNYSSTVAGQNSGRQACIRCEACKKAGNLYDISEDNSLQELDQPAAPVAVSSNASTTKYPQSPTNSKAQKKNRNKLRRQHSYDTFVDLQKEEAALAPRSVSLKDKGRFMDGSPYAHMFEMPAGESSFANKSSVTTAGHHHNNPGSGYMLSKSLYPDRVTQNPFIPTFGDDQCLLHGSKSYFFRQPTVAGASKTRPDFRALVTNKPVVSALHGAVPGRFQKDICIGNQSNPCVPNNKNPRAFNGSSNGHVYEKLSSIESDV

`Cc1ccc(CN2OCC(N3CCC(c4ccc(O)cc4)CC3)C2=O)cc1` (single isomer, unassigned) [Example 2, P-2, 4-(4-(4-hydroxyphenyl)piperidin-1-yl)-2-(4-methylbenzyl)isoxazolidin-3-one]: the inhibition constant Ki in experiment [1] amounted to 2.79 nM. In experiment [2], the “occupancy of brain-resident NR2B-subtype receptors after dosing (in words)” value is listed as “occupies brain-resident NR2B-subtype receptors”.
